Where “and” joins values, the source holds several entries; their conditions need not be identical. Equal entries are not always repeated.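 Each compound was tested at five concentrations against cells in 96-well plates for 48 hours. The concentration for 50% growth inhibition is given as GI50. TGI: total growth inhibition.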
Legend:
Assay in all cases: NCI tumour cell line growth inhibition, 48 h
[1] = tested on: U251 CNS
[2] = tested on: TK-10 renal
[3] = tested on: MALME-3M melanoma
[4] = tested on: NCI-H460 lung
[5] = tested on: HT29 colon
[6] = tested on: NCI-H226 lung
[7] = tested on: OVCAR-4 ovarian
[8] = tested on: RXF 393 renal
[9] = tested on: 786-0 renal
[10] = tested on: DU-145 prostate

SMILES	TGI [1]	TGI [2]	TGI [3]	TGI [4]	TGI [5]	TGI [6]	TGI [7]	TGI [8]	TGI [9]	GI50 [1]	GI50 [2]	GI50 [10]	TGI [10]	GI50 [4]	GI50 [6]	GI50 [9]	GI50 [3]	GI50 [5]	GI50 [8]	GI50 [7]
C=CCC12CCC(=O)[C@@]1(C)CC=C(O)C2=O (stereo partly specified)	> 100 µM	> 100 µM	> 100 µM	> 100 µM	> 100 µM	> 100 µM	> 100 µM	> 100 µM	> 100 µM	–	–	–	–	–	–	–	–	–	–	–
Cc1ccc(NC(=O)c2nc(S(C)(=O)=O)oc2-c2ccc(F)cc2)cc1Nc1ccc2ncn(C)c(=O)c2c1	3.84 µM	3.25 µM	–	10.9 µM	–	5.52 µM	–	–	3.55 µM	2.01 µM	1.83 µM	1.72 µM	3.09 µM	3.26 µM	2.33 µM	2 µM	–	–	–	–
O=C(O)CCC1CCc2cccc(OCC(=O)O)c2C1=O (stereo unspecified)	> 100 µM	> 100 µM	–	> 100 µM	> 100 µM	–	> 100 µM	> 100 µM	> 100 µM	–	–	–	–	–	–	–	–	–	–	–
O=C(O)c1cn(C2CC2)c2cc(N3CCN(C(=O)Nc4nc(-c5ccc(Br)cc5)cs4)CC3)c(F)cc2c1=O	> 100 µM	–	> 100 µM	> 100 µM	> 100 µM	–	–	> 100 µM	> 100 µM	1.96 µM	–	2.05 µM	> 100 µM	1.09 µM	–	1.75 µM	0.853 µM	2.6 µM	3.9 µM	–
CCOC(=O)Nc1ccc2c(c1)N(C(=O)CCN(CC)CC)c1ccccc1S2	> 72.1 µM and 108 µM	76.6 µM	34.4 µM and 70.3 µM	57.1 µM	33.9 µM and 96.4 µM	–	234 µM	64.1 µM and 59.5 µM	69.8 µM	39.8 µM	–	–	–	–	–	–	29.1 µM	29.6 µM	15.4 µM	84 µM
O=C(Cc1ccccc1)N/N=C(/c1nc2ccc([N+](=O)[O-])cc2[nH]c1=O)C(O)c1ccccc1Cl (stereo unspecified)	> 100 µM	> 100 µM	> 100 µM	> 100 µM	> 100 µM	> 100 µM	> 100 µM	–	> 100 µM	–	–	–	–	–	–	–	–	–	–	–
Cc1cc2c(cc1C)[n+](=O)c(C(=O)CC(=O)C(=O)Nc1ccccc1C(C)C)c(C)n2[O-]	> 100 µM	> 100 µM	> 100 µM	> 100 µM	> 100 µM	> 100 µM	> 100 µM	> 100 µM	> 100 µM	–	–	–	–	–	–	–	–	–	–	–
COc1cc2c(cc1OCCCCn1c(-c3cccs3)nc3ccccc31)N=C[C@@H]1CCCN1C2=O	10.1 µM	6.74 µM	3.27 µM	4.38 µM	14.6 µM	6.51 µM	4.67 µM	–	5.9 µM	1.77 µM	2.09 µM	1.32 µM	6.74 µM	1.55 µM	2.13 µM	1.71 µM	1.74 µM	1.97 µM	–	1.61 µM
NC1=NC2=C(CCCC2)C(c2cccs2)S1 (stereo unspecified)	> 100 µM	> 100 µM	> 100 µM	> 100 µM	> 100 µM	–	> 100 µM	> 100 µM	> 100 µM	–	–	–	–	–	–	–	–	–	–	–
CN(C)c1ccc(/C=c2\sc3nnc(-c4cccnc4)n3c2=O)cc1	> 100 µM	> 100 µM	> 100 µM	> 100 µM	–	> 100 µM	> 100 µM	> 100 µM	> 100 µM	–	–	–	–	–	–	–	–	–	–	–
OCCCc1cnco1	> 100 µM	> 100 µM	> 100 µM	> 100 µM	> 100 µM	> 100 µM	> 100 µM	> 100 µM	> 100 µM	–	–	–	–	–	–	–	–	–	–	–
N#Cc1c2ccccc2c2nnc3ccccc3n12	70 µM	> 100 µM	> 100 µM	> 100 µM	> 100 µM	–	> 100 µM	–	> 100 µM	17.7 µM	31.7 µM	26.8 µM	> 100 µM	31.9 µM	–	53.2 µM	> 100 µM	42.6 µM	–	> 100 µM
CCN(CC)CC(O)COc1c(Br)c(Br)c(Br)c2c1OC(C)(C)C2 (stereo unspecified)	14.8 µM	14.9 µM	5.14 µM	11.6 µM	3.91 µM	40.9 µM	22.8 µM	–	11.9 µM	4.48 µM	4.19 µM	5.43 µM	18.1 µM	3.28 µM	13.5 µM	3.13 µM	2.28 µM	1.82 µM	–	6.56 µM
Cn1c2cc([N+](=O)[O-])ccc2c(=O)c2c(O)cc3c(c21)C=CC(C)(C)O3	> 100 µM	89.1 µM	> 100 µM	> 100 µM	> 100 µM	–	> 100 µM	74.5 µM	> 100 µM	–	–	–	–	–	–	–	–	–	–	–
CC(=O)CC(=O)NC=O	> 100 µM	> 100 µM	> 100 µM	> 100 µM	> 100 µM	> 100 µM	> 100 µM	> 100 µM	> 100 µM	–	–	–	–	–	–	–	–	–	–	–
O=C(N/C=C/C=C/Sc1ccccc1)OCc1ccccc1	34 µM	64.7 µM	–	57 µM	31.9 µM	41.3 µM	57 µM	35.6 µM	31 µM	–	–	–	–	–	–	–	–	–	–	–
C=C1C(=O)c2cc3c(cc2C(c2cc(OC)c(OC)c(OC)c2)[C@@H]1C(=O)O)OCO3 (stereo partly specified)	> 100 µM	> 100 µM	> 100 µM	> 100 µM	> 100 µM	> 100 µM	–	> 100 µM	> 100 µM	–	–	–	–	–	–	–	–	–	–	–
COC1=CC(=O)OC(/C=C(C)/C=C/C2=C(C)CCCC2(C)C)C1 (stereo unspecified)	> 100 µM	> 100 µM	> 100 µM	> 100 µM	> 100 µM	> 100 µM	> 100 µM	> 100 µM	> 100 µM	–	–	–	–	–	–	–	–	–	–	–
COC(=O)c1nc(C(=O)OC)c2c([nH]c3ccccc32)c1C(=O)OC	> 100 µM	> 100 µM	> 100 µM	> 100 µM	> 100 µM	> 100 µM	–	> 100 µM	> 100 µM	–	–	–	–	–	–	–	–	–	–	–
Fc1ccc(C2SCc3nc4ccccc4n32)cc1F (stereo unspecified)	> 100 µM	82.3 µM	> 100 µM	> 100 µM	–	–	98.9 µM	80 µM	> 100 µM	–	–	–	–	–	–	–	–	–	–	–

From PubChem BioAssay (NCI)
